Data set [1] concerns the target T1, Capsid scaffolding protein (Herpes simplex virus (type 1 / strain 17), UniProt P10210).
T1 sequence (P10210 whole entry): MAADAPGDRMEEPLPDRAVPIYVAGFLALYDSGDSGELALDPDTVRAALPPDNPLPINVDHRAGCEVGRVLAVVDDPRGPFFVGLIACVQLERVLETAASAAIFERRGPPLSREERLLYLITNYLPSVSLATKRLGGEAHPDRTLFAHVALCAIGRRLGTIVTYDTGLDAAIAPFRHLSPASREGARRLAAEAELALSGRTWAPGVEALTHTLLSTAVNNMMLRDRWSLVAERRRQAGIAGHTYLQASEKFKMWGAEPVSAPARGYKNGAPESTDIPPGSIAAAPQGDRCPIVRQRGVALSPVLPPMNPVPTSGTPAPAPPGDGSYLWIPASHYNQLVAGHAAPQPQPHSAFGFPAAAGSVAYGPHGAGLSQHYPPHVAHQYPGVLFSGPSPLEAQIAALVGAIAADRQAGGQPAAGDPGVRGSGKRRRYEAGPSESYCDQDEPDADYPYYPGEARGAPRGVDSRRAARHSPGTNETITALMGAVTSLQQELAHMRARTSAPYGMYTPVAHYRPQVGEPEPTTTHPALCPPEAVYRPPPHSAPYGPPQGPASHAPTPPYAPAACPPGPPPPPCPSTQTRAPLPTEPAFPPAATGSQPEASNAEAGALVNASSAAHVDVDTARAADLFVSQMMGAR
The data set is described as follows: Inhibitory concentration for peptidolytic activity against herpes simplex type-1 (HSV-1) protease at 10 uM. Set-up: species or system Human alphaherpesvirus 1.

In data set [2] the test system is Cytomegalovirus. Kind of data set: Inhibitory concentration for peptidolytic activity against cytomegalovirus (CMV) protease at 10 uM. The data set is classed as functional, organism-based. Conditions: Human betaherpesvirus 5; call rule not given here.
Data set [3] has as its system Human alphaherpesvirus 2. The data set is described as follows: Percent inhibition for peptidolytic activity against herpes simplex type-2(HSV-2) protease at 10 uM. The data set is classed as functional.
For data set [4], the system named is Cytomegalovirus. Kind of data set: Percent inhibition for peptidolytic activity against cytomegalovirus (CMV) protease at 10 uM. The following applies: Human betaherpesvirus 5. It is filed as functional.
A short description of data set [5]: Half life was determined. It is filed as ADME. Conditions: rat.
The nature of data set [6]: Selectivity ratio of inhibitory concentration against elastase and HSV-1.
The nature of data set [7]: Inhibitory concentration for peptidolytic activity against elastase.
Data set [8] can be described thus: Tested for peptidolytic activity against subtilisin at a concentration of 1 mM; no inhibition.
In data set [9] the test system is Human alphaherpesvirus 2. The data set is described as follows: Inhibitory concentration for peptidolytic activity against herpes simplex type-2(HSV-2) protease at 10 uM. The data set is classed as functional, organism-based.

Each structure is given as a SMILES string.

By IC50 is commonly meant the midpoint of a concentration-inhibition curve. Read a high IC50 as a need for much substance. With `O=C(NCc1nc2ccsc2c(=O)o1)OCc1ccccc1`, the IC50 in data set [1] is 2.7 µM; in the data set on Cytomegalovirus [2], 45 µM.

Broadly, the inhibition is the drop in the measured response relative to a control, in per cent. In the case of `C[C@H](NC(=O)NCc1ccccc1)c1nc2ccsc2c(=O)o1`, the inhibition at 10 µM with Human alphaherpesvirus 2 [3] was 1%; with Cytomegalovirus [4], 20%.

Usually half-life stands for how long it takes for the measured level to halve. A lower half-life goes with rapid decline. Take `C[C@H](NC(=O)OCc1ccccc1)c1nc2ccsc2c(=O)o1`: the half-maximal inhibitory concentration (IC50) in [1] was 0.48 µM; in data set [7] it was 120 µM; in data set [8] it was “Not Active”; in the data set on Cytomegalovirus [2] it was 9.4 µM; in the data set with Human alphaherpesvirus 2 [9], 0.42 µM. The half-life in [5] was greater than 100 h. For the same molecule, the Ratio in data set [6] came out at 250.

Turning to `C[C@H](NC(=O)OC(C)(C)C)c1nc2ccsc2c(=O)o1`, the inhibition at 10 µM in the data set on Human alphaherpesvirus 2 [3] turned out to be 32%; in the data set with Cytomegalovirus [4], 15%.

As for `Cc1ccc(S(=O)(=O)N[C@@H](C)c2nc3ccsc3c(=O)o2)cc1`, the inhibition at 10 µM was found to be 13% with Human alphaherpesvirus 2 [3] and 30% in the data set with Cytomegalovirus [4].

For `C[C@H](NC(=O)OCc1ccccc1)C(=O)Nc1csc2c(=O)oc([C@H](C)NC(=O)OCc3ccccc3)nc12`, the inhibition at 10 µM in the data set on Human alphaherpesvirus 2 [3] worked out at 50%; with Cytomegalovirus [4] it was 43%.

`O=C(N[C@@H](CO)c1nc2ccsc2c(=O)o1)OCc1ccccc1`: the values for the concentration for half-maximal inhibition (IC50) (in data set [1]; in the data set with Cytomegalovirus [2]; in the data set on Human alphaherpesvirus 2 [9]) were 0.65 µM, 20 µM and 0.33 µM, respectively.

Consider `C[C@H](NC(=O)OCc1ccccc1)c1nc2cc(-c3ccccc3)sc2c(=O)o1`, for which the results for the half-maximal inhibitory concentration (IC50) (in data set [1]; with Cytomegalovirus [2]) were 3.3 µM and greater than 300 µM, respectively.

For the molecule `C[C@H](NC(=O)OCc1ccccc1)c1nc2c(Cl)c(NC(=O)[C@@H](C)NC(=O)OCc3ccccc3)sc2c(=O)o1`, the IC50 in the data set with Cytomegalovirus [2] came to 1.3 µM; in the data set with Human alphaherpesvirus 2 [9], 1.6 µM.

Turning to `NC(=O)CC[C@H](NC(=O)OCc1ccccc1)c1nc2ccsc2c(=O)o1`, in data set [1], the IC50 is 6.3 µM.

Regarding `NC(=O)C[C@H](NC(=O)OCc1ccccc1)c1nc2ccsc2c(=O)o1`, the IC50 in data set [1] stood at 10 µM; in the data set on Cytomegalovirus [2], 18 µM.

`O=C(N[C@@H](Cc1ccccc1)c1nc2ccsc2c(=O)o1)OCc1ccccc1`: the IC50 is greater than 300 µM in data set [1] and 3.5 µM in the data set with Cytomegalovirus [2].

`C[C@H](NC(=O)Nc1ccccc1)c1nc2ccsc2c(=O)o1`: the IC50 in the data set with Cytomegalovirus [2] and in the data set with Human alphaherpesvirus 2 [9] was greater than 100 µM throughout.

Consider `CC(C)[C@H](NC(=O)OCc1ccccc1)c1nc2ccsc2c(=O)o1`, for which the IC50 in [1] is 31 µM; in the data set on Cytomegalovirus [2], 26 µM.

With `C[C@H](Nc1ccc([N+](=O)[O-])cc1[N+](=O)[O-])c1nc2ccsc2c(=O)o1`, the concentration for half-maximal inhibition (IC50) in the data set with Cytomegalovirus [2] is 3.3 µM; with Human alphaherpesvirus 2 [9] it was 2.9 µM.

As for `Cc1csc2c(=O)oc([C@H](C)NC(=O)OCc3ccccc3)nc12`, the figures for the IC50 (in data set [1]; in the data set with Cytomegalovirus [2]) were 3.1 µM and 12 µM, respectively.

Regarding `C[C@H](NC(=O)OCc1ccccc1)c1nc2ccccc2c(=O)o1`, the half-life in data set [5] is 14 h. For the same molecule, in [6], the Ratio stood at 1.1. Also, in data set [7], the IC50 came out at 45 µM.

Molecule `Cc1cccc2nc([C@H](C)NC(=O)OCc3ccccc3)oc(=O)c12` gave a half-life in data set [5] of 33 h. In addition, the Ratio in data set [6] is 0.002. In [7], half-maximal inhibition (IC50) was put at 0.22 µM.

Source of the values: ChEMBL document CHEMBL1130472, “Potent selective thienoxazinone inhibitors of herpes proteases” (Bioorg Med Chem Lett, 1997).
